Where a name gives a salt, the structure may show the parent alone. Read-outs that look alike come from different tables or passages of the source.
Columns and labels:
[1] = target: peripheral 5-HT2A receptors (Rattus norvegicus (Rat), UniProt P14842); conditions: cited from earlier work; for 5-methoxytryptamine-induced hyperglycemia: pretreatment
CYP2D6 [2] = target: T1, CYP2D6 (Homo sapiens (Human), UniProt P10635); conditions: DEX O-demethylation; read-out: estimated mean IC50; cited from earlier work
[3] = cited from earlier work
5-HT2A receptors = 5-HT2A receptors (Homo sapiens (Human), UniProt P28223); assay: 5-HT2A receptor antagonist radioligand binding ([3H]ketanserin); conditions: for pKi / Ki: Ki calculated using the Cheng Prusoff equation; for IC50: inhibition of [3H]ketanserin binding, HEK-293 cells expressing human recombinant 5HT2A receptor
Description: HEK-293 cells expressing human recombinant 5HT2A receptor were used in the antagonist radioligand binding studies. […] The inhibition constants (Ki) were calculated using the Cheng Prusoff equation. Both sarpogrelate enantiomers were potent inhibitors of [3H]ketanserin binding (Table 1). M1 enantiomers also potently bind to 5HT2A receptors with the Ki values that are approximately one order of magnitude higher than those of sarpogrelate enantiomers (Table 1). There are no meaningful differences between enantiomers in terms of 5-HT2A receptor binding for sarpogrelate or its main metabolite.
5HT2a ASSAY: Evaluation of the affinity of compounds for the human 5-HT2A receptor in transfected HEK-293 cells determined in a radioligand binding assay. Cell membrane homogenates (30-50 μg protein) were incubated 15 min at 37° C. with 0.5 nM [3H]ketanserin in the absence or presence of the test compound in a buffer containing 50 mM Tris-HCl (pH 7.4). Nonspecific binding was determined in the presence of 1 μM ketanserin. Following incubation, the samples were filtered rapidly under vacuum through glass fiber filters presoaked with 0.3% PEI and rinsed several times with ice-cold 50 mM Tris-HCl using a 96-sample cell harvester. The filters were dried then counted for radioactivity in a scintillation counter using a scintillation cocktail (WO2005013952A1, EP1500391A1[ab1], incorporated in its entirety by reference).

CYP2D6 [4] = target: T1, CYP2D6; assay: Dextromethorphan O-demethylase activity in human liver microsomes; type: biochemical; conditions: CYP 2D6 activity; pooled human liver microsomes 0.25 mg/ml; read-out: IC50
Description: Dextromethorphan O-demethylase activity was determined in human liver microsomes. […] The incubation mixtures contained pooled human liver microsomes (final concentrations: 0.25 mg/ml), dextromethorphan, and a NADPH-generating system (1.3 mM NADP+, 3.3 mM glucose 6-phosphate, 3.3 mM MgCl2, and 0.4 U/ml glucose-6-phosphate dehydrogenase). […] All incubations were performed in triplicate, and mean values were used for analysis. […] Both sarpogrelate enantiomers inhibited CYP2D6-mediated dextromethorphan O-demethylation (Table 4).

[5] = Inhibition of dextromethorphan metabolism in vivo (dextromethorphan plasma levels after sarpogrelate); parameters: species or system rat; conditions: for Dextromethorphan AUC: dextromethorphan 50 mg/kg oral gavage, AUC 0-6 h, rat plasma
Description: In a separate set of studies, ability of sarpogrelate to inhibit dextromethorphan metabolism in vivo was studied in rats. Adult male Sprague Dawley rats (RjHan:SD) purchased from Janvier Labs (France) were housed in a climate-controlled room under a 12 h light/12 h dark cycle with ad libitum access to food and water. Two-three days prior to blood sampling, rats were provided with a catheter in the jugular vein and, thereafter, rats treated once with Carprofen (5 mg/kg) directly after surgery and catheters were rinsed daily with Heparin (500 IE/ml) (20 μl/rat/day). On the day of the experiment, dextromethorphan (50 mg/kg) was administered by oral gavage, immediately followed by intravenous bolus injection of sarpogrelate (1, 3 or 10 mg/kg; racemate or one of the enantiomers) or vehicle via vascular access port at t=0 h. Blood samples were collected at four time points until 6 hours post dextromethorphan administration. Sample size was 80 μl Li-heparin whole blood/time point, i.e. 40 μl Li-heparin plasma/time point. Whole blood samples were stored on ice until centrifugation (10 min at 3000 g, 4° C.). Plasma was prepared within 45 min after collection, frozen at −20° C. and stored at this temperature until processed for LC-MS analysis.

[6] = system: PCP-induced hyperactivity; assay: Phencyclidine-induced hyperactivity in rats (sarpogrelate and dextromethorphan); type: in vivo, rat; conditions: in the presence of dextromethorphan; racemate 3 mg/kg, (−) sarpogrelate 1 or 3 mg/kg i.p.; PCP 5 mg/kg s.c.; 60-120 min
[7] = system: MK-801-induced hyperactivity; assay: MK-801-induced hyperactivity in rats; type: in vivo, rat
Description: To confirm the ability of M1 enantiomers to induce effects that are relevant to CNS diseases and that are known for 5-HT2A receptor […], separate groups of female Wistar rats (n=6-9), housed 4-5 per cage under standard colony room conditions with free access to food and water, were pretreated intraperitoneally with varying doses of one of the two M1 enantiomers (0, 3 or 10 mg/kg) followed 15 minutes later by 0.1 mg/kg of MK801 or its vehicle and immediately thereafter placed into computer-controlled motor activity recording chambers (25×35.5×34 cm, L×W×H; transparent Plexiglas walls and a non-transparent plastic floor; enclosed within sound-attenuating ventilated cubicles) for 60 minutes, during which infrared photocell interruptions (5 cm and 14 cm off the floor) were recorded as a measure of motor activity. MK-801 is a phencyclidine-like NMDA receptor channel blocked commonly used in psychopharmacology research on novel therapies including novel antipsychotics.

[8] = system: locomotor activity, stereotypy, ataxia; conditions: DO 15-120 mg/kg, DEX 15-120 mg/kg, PCP 1.25-20 mg/kg; rats; cited from earlier work
[9] = system: behavioral disturbances in Alzheimer's disease; conditions: human, in vivo; cited from earlier work
[10] = system: NPI scores and sleep in patients with AD; conditions: human, in vivo; cited from earlier work
CYP2D6 [11] = target: T1, CYP2D6; conditions: dextromethorphan as substrate; cited from earlier work
[12] = sarpogrelate dose 1 mg/kg i.v. bolus
[13] = sarpogrelate dose 3 mg/kg i.v. bolus
[14] = sarpogrelate dose 10 mg/kg i.v. bolus

T1 sequence (P10635 whole entry): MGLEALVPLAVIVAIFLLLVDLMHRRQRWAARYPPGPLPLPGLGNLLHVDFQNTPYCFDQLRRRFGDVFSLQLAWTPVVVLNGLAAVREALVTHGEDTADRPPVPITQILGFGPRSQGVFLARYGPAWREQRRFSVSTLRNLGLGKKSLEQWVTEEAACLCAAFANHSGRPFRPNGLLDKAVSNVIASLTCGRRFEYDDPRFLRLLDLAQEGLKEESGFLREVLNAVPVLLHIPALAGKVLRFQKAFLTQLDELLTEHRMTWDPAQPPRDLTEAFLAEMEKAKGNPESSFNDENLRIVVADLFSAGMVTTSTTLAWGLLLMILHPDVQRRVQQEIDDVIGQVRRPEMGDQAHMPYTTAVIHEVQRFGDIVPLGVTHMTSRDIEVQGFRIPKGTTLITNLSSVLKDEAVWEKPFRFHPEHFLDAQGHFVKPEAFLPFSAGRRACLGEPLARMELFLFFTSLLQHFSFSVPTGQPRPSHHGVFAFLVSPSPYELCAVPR
Chain of 5-HT2A receptors (P28223 whole entry): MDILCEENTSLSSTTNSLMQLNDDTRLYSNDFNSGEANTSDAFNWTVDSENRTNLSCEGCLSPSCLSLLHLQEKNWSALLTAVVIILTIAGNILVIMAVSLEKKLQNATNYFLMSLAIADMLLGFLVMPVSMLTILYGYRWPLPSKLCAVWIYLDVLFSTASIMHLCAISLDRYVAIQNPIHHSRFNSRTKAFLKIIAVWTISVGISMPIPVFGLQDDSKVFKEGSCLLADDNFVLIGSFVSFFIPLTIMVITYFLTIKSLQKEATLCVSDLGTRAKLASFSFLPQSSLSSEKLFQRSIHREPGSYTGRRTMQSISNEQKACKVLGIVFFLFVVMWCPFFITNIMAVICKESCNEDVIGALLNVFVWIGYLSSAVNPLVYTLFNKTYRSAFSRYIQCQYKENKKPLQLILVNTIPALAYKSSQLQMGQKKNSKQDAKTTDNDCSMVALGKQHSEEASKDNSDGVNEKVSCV

COc1ccc2[nH]cc(CCN)c2c1 [5-methoxytryptamine]
blood glucose ([1]; agonist given alone): induced hyperglycemia

CN1CCN(CC/C=C2/c3ccccc3Sc3ccc(S(=O)(=O)N(C)C)cc32)CC1 [Cisthiothixene]
IC50 (CYP2D6 [2]): 137000 nM

COc1cccc(CCc2ccccc2OCC(CN(C)C)OC(=O)CCC(=O)O)c1 (stereo not shown) [Compound 50 hydrochloride, Butanedioic acid, mono(2-(dimethylamino)-1-((2-(2-(3-methoxyphenyl)ethyl)phenoxy)methyl)ethyl) ester, hydrochloride]
mortality ([3]; 5, 20, 80 and 320 mg/kg/day orally, 52 weeks, beagle dogs): No animal died or was sacrificed in extremis
Food consumption ([3]; dog, in vivo, po): inhibited in females receiving 80 mg/kg/day and over
biochemical examination ([3]; dog, in vivo, po): an increase in potassium in males receiving 80 mg/kg/day and over, and females receiving 320 mg/kg/day
electrocardiographic or ophthalmoscopic examination ([3]; dog, in vivo, po): no treatment related change
general conditions: emesis ([3]; dog, in vivo, po): emesis was noted in males and females receiving 320 mg/kg/day and males receiving 80 mg/kg/day
general conditions: salivation ([3]; dog, in vivo, po): salivation in females receiving 320 mg/kg/day
hematological examination ([3]; dog, in vivo, po): an increase in a platelet count in males receiving 320 mg/kg/day
histopathological examination of the kidney ([3]; dog, in vivo, po): fatty degeneration was revealed in the cortico-medullary border zone of the kidney in males receiving 320 mg/kg/day
urinalysis ([3]; dog, in vivo, po): an increase in protein was revealed in females receiving 320 mg/kg/day
water consumption ([3]; dog, in vivo, po): inhibition of water consumption

COc1cccc(CCc2ccccc2OC[C@H](CN(C)C)OC(=O)CCC(=O)O)c1 [Compound 51]
pKi (5-HT2A receptors): 8.4
IC50 (5-HT2A receptors): 7.5 nM
IC50 (CYP2D6 [4]): 580 nM
Fold increase (relative to vehicle) of dextromethorphan AUC ([5]; sarpogrelate dose 1 mg/kg): 1.4 fold
Dextromethorphan AUC [5, 12]: 827.0 ng·h/mL
Fold increase (relative to vehicle) of dextromethorphan AUC ([5]; sarpogrelate dose 3 mg/kg): 3.3 fold
Dextromethorphan AUC [5, 13]: 2021.5 ng·h/mL
Fold increase (relative to vehicle) of dextromethorphan AUC ([5]; sarpogrelate dose 10 mg/kg): 6.9 fold
Dextromethorphan AUC [5, 14]: 4154.3 ng·h/mL

COc1cccc(CCc2ccccc2OCC(CN(C)C)OC(=O)CCC(=O)O)c1 (stereo not shown) [Compound 52]
pKi (5-HT2A receptors): 8.2
IC50 (5-HT2A receptors): 11 nM
IC50 (CYP2D6 [4]): 1300 nM
Fold increase (relative to vehicle) of dextromethorphan AUC ([5]; sarpogrelate dose 1 mg/kg): 1.5 fold
Dextromethorphan AUC [5, 12]: 921.4 ng·h/mL
Fold increase (relative to vehicle) of dextromethorphan AUC ([5]; sarpogrelate dose 3 mg/kg): 2.7 fold
Dextromethorphan AUC [5, 13]: 1649.5 ng·h/mL
Fold increase (relative to vehicle) of dextromethorphan AUC ([5]; sarpogrelate dose 10 mg/kg): 5.3 fold
Dextromethorphan AUC [5, 14]: 3195.9 ng·h/mL
motor hyperactivity in PCP-treated rats [6]: inhibited motor hyperactivity in PCP-treated rats

COc1cccc(CCc2ccccc2OC[C@@H](O)CN(C)C)c1 [Compound 147, (S)-1-(dimethylamino)-3-(2-(3-methoxyphenethyl)phenoxy)propan-2-ol]
Ki (5-HT2A receptors): 0.794 nM
IC50 (5-HT2A receptors): 1.2 nM
IC50 (CYP2D6 [4]): 38 nM

COc1cccc(CCc2ccccc2OC[C@H](O)CN(C)C)c1 [Compound 148, (R)-1-(dimethylamino)-3-(2-(3-methoxyphenethyl)phenoxy) propan-2-ol]
Ki (5-HT2A receptors): 0.631 nM
IC50 (5-HT2A receptors): 1.3 nM
IC50 (CYP2D6 [4]): 96 nM
hyperactivity induced by MK-801 (motor activity, 60 min) ([7]; M1 enantiomer 3 or 10 mg/kg i.p., 15 min before 0.1 mg/kg MK801, female Wistar rats): reduced hyperactivity induced by MK-801

COc1cccc([C@H](O)C2CCN(CCc3ccc(F)cc3)CC2)c1OC [M-100,907]
hyperactivity induced by MK-801 (motor activity, 60 min) ([7]; 3 mg/kg): reduced hyperactivity induced by MK-801

c1ccc(C2(N3CCCCC3)CCCCC2)cc1 [PCP, 1-(1-phenylcyclohexyl)piperidine]
behavioral effects given alone (locomotor hyperactivity, stereotypy, ataxia) [8]: dose-dependent locomotor hyperactivity, stereotypy and ataxia

O=C(c1ccc(F)cc1)C1CCN(CCn2c(=O)[nH]c3ccccc3c2=O)CC1 [ketanserin]
5-methoxytryptamine-induced hyperglycemia [1]: prevented

CC12CC3CC(C)(C1)CC(N)(C3)C2 [memantine, 3,5-dimethyladamantan-1-amine]
agitation/aggression [9]: significant improvement in agitation/aggression
delusions [9]: significant improvement in delusions
disinhibition [9]: significant improvement in disinhibition
irritability/lability [9]: superior to control in irritability/lability
nighttime disturbance/diurnal rhythm disturbances [9]: significant improvement in nighttime disturbance/diurnal rhythm disturbances
fragmented sleep [10]: effective in reducing fragmented sleep
scores of NPI item for irritability/lability [10]: significantly decreases the scores of NPI item for irritability/lability
scores of NPI subscale for anxiety [10]: significantly decreases in the scores of NPI subscale for anxiety

C=C[C@H]1C[N@@]2CC[C@H]1C[C@@H]2[C@@H](O)c1ccnc2ccc(OC)cc12 [quinidine]
inhibition type (Dixon plots) (CYP2D6 [11]): fit well to all competitive inhibition types

Cc1nc2n(c(=O)c1CCN1CCC(c3noc4cc(F)ccc34)CC1)CCCC2 [risperidone]
IC50 (CYP2D6 [2]): 39100 nM

COc1cccc(OC(C)CNC(=N)Cc2cccc(C)c2)c1 (stereo not shown) [xylamidine]
5-methoxytryptamine-induced hyperglycemia [1]: prevented
